Results: patent US20260256751A1, “COMBINATION OF BETA-2-ADRENERGIC RECEPTOR AGONISTS AND GLP-1 RECEPTOR AGONISTS FOR USE IN TREATING HYPERGLYCAEMIA” (ATROGI AB, priority 2023, published 2026)

Experiments:
[1] = tested on: differentiated L6-myotubes; assay: Glucose uptake screen (Biological example 1 of WO 2019/053427); type: cell-based; settings: compound at 10 μM, activity relative to isoproterenol at 10 μM; for Emax at 10 µM: read-out: Biological example 1 of WO 2019/053427 (GU)
In short: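 Uptake was read out as ^3H-2-deoxyglucose (50 nM, 10 min) radioactivity in NaOH lysates. Beforehand, overnight-starved, differentiated L6 myotubes received compound at 1×10^−5 M with ICI-118551 present for 1 h 40 min, followed by fresh agonist for a further 20 min in glucose-free medium.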

[2] = tested on: differentiated L6-myotubes; assay: cAMP production relative to isoprenaline (Biological example 2 of WO 2019/053427); type: cell-based; settings: 0.25 h, compound at 10 μM, activity relative to isoproterenol at 10 μM
In short: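 Values are cAMP levels relative to isoprenaline at equal concentration (final 1×10^−5 M for both). Stimulation lasted 15 min in differentiated L6 myotubes, using HBSS buffer (pH 7.4) containing 1 mM IBMX, 5 mM HEPES and 1% BSA.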

With `CCC[C@@H]1CC[C@@H]([C@@H](O)c2cccc(F)c2)N1` [Compound 133, (S)-[(2S,5R)-5-propyl-2-pyrrolidinyl](m-fluorophenyl)methanol] the Emax at 10 µM [1] was 50 to 75% and the Emax at 10 µM [2] was less than 25%.

With `CC(C)(NC[C@H](O)c1cncc(F)c1)[C@H]1CC[C@@H](C(=O)O)CC1` [Compound 323, (1S,4s)-8-[(R)-2-(5-fluoro-3-pyridyl)-2-hydroxyethylamino]-7-hydroxy-p-menthan-7-one] the Emax at 10 µM [1] was 25 to 50% and the Emax at 10 µM [2] was 50 to 75%.

`CCC[C@@H](C)NC[C@H](O)c1cccc(F)c1` [Compound 50, (R)-2-[(R)-1-methylbutylamino]-1-(m-fluorophenyl)-1-ethanol] showed an Emax at 10 µM [1] greater than 75% and an Emax at 10 µM [2] of less than 25%.

With `CCCC(C)NCC(O)c1cc(Cl)c(N)c(C(F)(F)F)c1` (stereo not drawn) [Compound 33, 1-[4-amino-3-chloro-5-(trifluoromethyl)phenyl]-2-(1-methylbutylamino)-1-ethanol] the Emax at 10 µM [1] was 50 to 75% and the Emax at 10 µM [2] was greater than 75%.

In the case of `CC1(C)CC[C@H]([C@@H](O)c2cccc(Cl)c2)N1` [Compound 153, (S)-[(R)-5,5-dimethyl-2-pyrrolidinyl](m-chlorophenyl)methanol], the Emax at 10 µM [1] is reported as 25 to 50% and the Emax at 10 µM [2] is reported as less than 25%.

For `O[C@@H](c1ccccc1F)C12CCC(CCc3cccnc3)(CC1)N2` [Compound 547, (S)-(o-fluorophenyl){4-[2-(3-pyridyl)ethyl]-7-azabicyclo[2.2.1]hept-1-yl}methanol], the Emax at 10 µM [1] was greater than 75% and the Emax at 10 µM [2] was less than 25%.

`CC1(C)CC[C@H]([C@H](O)c2cncc(F)c2)N1` [Compound 157, (R)-[(R)-5,5-dimethyl-2-pyrrolidinyl](5-fluoro-3-pyridyl)methanol] showed an Emax at 10 µM [1] greater than 75% and an Emax at 10 µM [2] of less than 25%.

Work on `CC1(C)C[C@@H]([C@@H](O)c2cncc(F)c2)N1` [Compound 215, (S)-[(S)-4,4-dimethyl-2-azetidinyl](5-fluoro-3-pyridyl)methanol] yielded an Emax at 10 µM [1] of 25 to 50% and an Emax at 10 µM [2] of less than 25%.

`Oc1ccc(C(O)CNCC2CC2)cc1` (stereo not drawn) [Compound 3, p-{2-[(cyclopropylmethyl)ami-no]-1-hydroxyethyl}phenol] gave an Emax at 10 µM [1] of 50 to 75% and an Emax at 10 µM [2] of less than 25%.

Compound `CO[C@H]1CC[C@H](CCCNC[C@H](O)c2cncc(F)c2)CC1` [Compound 261, (R)-1-(5-fluoro-3-pyridyl)-2-{3-[(1r,4S)-4-methoxycyclohexyl]propyl-amino}-1-ethanol] has an Emax at 10 µM [1] of less than 25% and an Emax at 10 µM [2] of less than 25%.

For `CO[C@H]1CC[C@@H](CCC(C)(C)NC[C@H](O)c2cncc(F)c2)CC1` [Compound 266], the Emax at 10 µM [1] was greater than 75% and the Emax at 10 µM [2] was less than 25%.

`CC(C)(CC[C@H]1CC[C@H](O)CC1)NC[C@H](O)c1ccccc1F` [Compound 319, (R)-2-{1,1-dimethyl-3-[(1r,4S)-4-hydroxycyclohexyl]propylamino}-1-(o-fluorophenyl)-1-ethanol] was tested, and the Emax at 10 µM [1] was greater than 75% and the Emax at 10 µM [2] was less than 25%.

With `CCC[C@@H]1CC[C@H]([C@H](O)c2cncc(F)c2)N1` [Compound 160, (R)-[(2R,5R)-5-propyl-2-pyrrolidinyl](5-fluoro-3-pyridyl)methanol] the “Biological example 1 of WO 2019/053427 (GU)” value [1] was “+++ (more than 75% of that of isoproterenol at 10 μM)” and the Emax at 10 µM [2] was less than 25%.

For `CC1(C)C[C@H]([C@@H](O)c2cncc(F)c2)N1` [Compound 217, (S)-[(R)-4,4-dimethyl-2-azetidinyl](5-fluoro-3-pyridyl)methano], the Emax at 10 µM [1] was 25 to 50% and the Emax at 10 µM [2] was less than 25%.

`COc1ccc(C[C@@]2(C)CC[C@H]([C@H](O)c3cccc(F)c3)N2)cc1` [Compound 366, (R)-{(2R,5R)-5-[(p-methoxyphenyl)methyl]-5-methyl-2-pyrrolidinyl}(m-fluorophenyl)methanol] was tested, and the Emax at 10 µM [1] was greater than 75% and the Emax at 10 µM [2] was 25 to 50%.

For `Cc1ncccc1[C@@H](O)CNC(C)(C)C[C@H]1CC[C@@H](NS(C)(=O)=O)CC1` [Compound 437, (R)-2-{1,1-dimethyl-2-[(1s,4S)-4-(mesylamino)cyclohexyl]ethylamino}-1-(2-methyl-3-pyridyl)-1-ethanol], the Emax at 10 µM [1] was 25 to 50% and the Emax at 10 µM [2] was less than 25%.

`O[C@@H](c1cccc(F)c1)C12CCC(CCc3ccc(OC(F)(F)F)cc3)(CC1)N2` [Compound 544, (S)-(m-fluorophenyl){4-[2-(p-trifluoromethoxyphenyl)ethyl]-7-azabicyclo[2.2.1]hept-1-yl}methanol] was tested, and the Emax at 10 µM [1] was less than 25% and the Emax at 10 µM [2] was less than 25%.

`CCCCNC[C@H](O)c1cccc(F)c1` [Compound 47, (R)-2-(butylamino)-1-(m-fluorophenyl)-1-ethanol] gave an Emax at 10 µM [1] of 50 to 75% and an Emax at 10 µM [2] of less than 25%.

For `CS(=O)(=O)N(Cc1ccccc1)[C@H]1CC[C@H](C[C@@H]2CC[C@H]([C@@H](O)c3cccc(F)c3)N2)CC1` [Compound 503, (S)-[(2R,5S)-5-({(1r,4S)-4-[(benzyl)-N-mesylamino]cyclohexyl}methyl)-2-pyrrolidinyl](m-fluorophenyl)methanol], the Emax at 10 µM [1] was less than 25% and the Emax at 10 µM [2] was less than 25%.

`CC(=O)N(C)[C@H]1CC[C@@H](CC(C)(C)NC[C@H](O)c2cccc(F)c2)CC1` [Compound 492, N-[(1S,4s)-4-{2-[(R)-2-(m-fluorophenyl)-2-hydroxyethylamino]-2-methylpropyl}cyclohexyl]-N-methylacetamide] showed an Emax at 10 µM [1] of 25 to 50% and an Emax at 10 µM [2] of less than 25%.

With `CC12CC(C1)[C@@H]([C@H](O)c1cccc(N)c1F)N2` [Compound 244, (R)-{(S)-1-methyl-2-azabicyclo[2.1.1]hex-3-yl}(3-amino-2-fluorophenyl)methanol] the Emax at 10 µM [1] was 50 to 75% and the Emax at 10 µM [2] was less than 25%.

With `CCC[C@H]1CCC[C@H]([C@@H](O)c2cccc(Cl)c2)N1` [Compound 129, (S)-[(2R,6S)-6-propyl-2-piperidyl](m-chlorophenyl)methanol] the Emax at 10 µM [1] was 25 to 50% and the Emax at 10 µM [2] was less than 25%.

`CC(C)(C[C@H]1CC[C@H](N)CC1)NC[C@H](O)c1cccc(C#N)n1` [Compound 417, 6-[(S)-2-{1,1-dimethyl-2-[(1r,4S)-4-aminocyclohexyl]ethylamino}-1-hydroxyethyl]-2-pyridinecarbontirile] was tested, and the Emax at 10 µM [1] was greater than 75% and the Emax at 10 µM [2] was 25 to 50%.

`CC12CC(C1)[C@H]([C@@H](O)c1ccccc1F)N2` [Compound 212, (S)-{(R)-1-methyl-2-azabicyclo[2.1.1]hex-3-yl}(o-fluorophenyl)methanol] gave an Emax at 10 µM [1] greater than 75% and an Emax at 10 µM [2] of less than 25%.

`CN(C)S(=O)(=O)[C@H]1CC[C@@H](CC(C)(C)NC[C@H](O)c2cncc(F)c2)CC1` [Compound 471, (R)-2-{1,1-dimethyl-2-[(1s,4S)-4-(dimethylaminosulfonyl)cyclohexyl]ethylamino}-1-(5-fluoro-3-pyridyl)-1-ethanol] gave an Emax at 10 µM [1] greater than 75% and an Emax at 10 µM [2] of 50 to 75%.

In the case of `O[C@H](c1cccc(F)c1)C12CCC(CCc3ccc(OC(F)(F)F)cc3)(CC1)N2` [Compound 546, (R)-(m-fluorophenyl){4-[2-(p-trifluoromethoxyphenyl)ethyl]-7-azabicyclo[2.2.1]hept-1-yl}methanol], the Emax at 10 µM [1] is reported as less than 25% and the Emax at 10 µM [2] is reported as less than 25%.

`CO[C@H]1CC[C@@H](CCCNC[C@H](O)c2cncc(F)c2)CC1` [Compound 260, (R)-1-(5-fluoro-3-pyridyl)-2-{3-[(1s,4R)-4-methoxycyclohexyl]propyl-amino}-1-ethanol] showed an Emax at 10 µM [1] greater than 75% and an Emax at 10 µM [2] of less than 25%.

`CC(C)(C)NC[C@H](O)c1cccc(F)c1F` [Compound 76, (R)-2-(tert-butylamino)-1-(2,3-difluorophenyl)-1-ethanol] showed an Emax at 10 µM [1] greater than 75% and an Emax at 10 µM [2] of 25 to 50%.

Work on `CCC[C@H]1CCC[C@H]([C@H](O)c2ccccc2Cl)N1` [Compound 135, (R)-[(2R,6S)-6-propyl-2-piperidyl](o-chlorophenyl)methanol] yielded an Emax at 10 µM [1] of 25 to 50% and an Emax at 10 µM [2] of less than 25%.

In the case of `CCC[C@H](C)NC[C@H](O)c1ccc(F)cc1` [Compound 53, (R)-2-[(S)-1-methylbutylamino]-1-(p-fluorophenyl)-1-ethanol], the Emax at 10 µM [1] is reported as 50 to 75% and the Emax at 10 µM [2] is reported as less than 25%.

In the case of `CC1(C)C[C@H]([C@@H](O)c2ccccc2F)N1` [Compound 203, (S)-[(R)-4,4-dimethyl-2-azetidinyl](o-fluorophenyl)methanol], the Emax at 10 µM [1] is reported as 25 to 50% and the Emax at 10 µM [2] is reported as less than 25%.

Work on `CS(=O)(=O)N[C@H]1CC[C@H](C[C@@H]2CC[C@H]([C@@H](O)c3cccc(F)c3)N2)CC1` [Compound 505, (S)-[(2R,5S)-5-{[(1r,4S)-4-(mesylamino)cyclohexyl]methyl}-2-pyrrolidinyl](m-fluorophenyl)methanol] yielded an Emax at 10 µM [1] of less than 25% and an Emax at 10 µM [2] of less than 25%.

In the case of `CC12CCC([C@@H](O)c3ccccc3F)(CC1)N2` [Compound 180, (S)-(o-fluorophenyl)(4-methyl-7-azabicyclo[2.2.1]hept-1-yl)methanol], the Emax at 10 µM [1] is reported as greater than 75% and the Emax at 10 µM [2] is reported as less than 25%.

`COc1ccc(CC23CCC([C@@H](O)c4cccc(F)c4)(CC2)N3)cc1` [Compound 400, (S)-(m-fluorophenyl)(4-[(p-methoxyphenyl)methyl]-7-azabicyclo[2.2.1]hept-1-yl}methanol] showed an Emax at 10 µM [1] of 50 to 75% and an Emax at 10 µM [2] of less than 25%.

`CC12CC(C1)[C@H]([C@H](O)c1cccc(Cl)c1)N2` [Compound 206, (R)-{(R)-1-methyl-2-azabicyclo[2.1.1]hex-3-yl}(m-chlorophenyl)methanol] showed an Emax at 10 µM [1] greater than 75% and an Emax at 10 µM [2] of less than 25%.

With `O[C@@H](CNCCC[C@H]1CC[C@@H](O)CC1)c1cncc(F)c1` [Compound 304, (R)-1-(5-fluoro-3-pyridyl)-2-{3-[(1s,4R)-4-hydroxycyclohexyl]propylamino}-1-ethanol] the Emax at 10 µM [1] was 50 to 75% and the Emax at 10 µM [2] was less than 25%.
